Reference: US10858367B2, “Compounds” (GLAXOSMITHKLINE INTELLECTUAL PROPERTY DEVELOPMENT LIMITED, priority 2017, dated 2020)

Biological target: T1, LRRK2 Ser935 phosphorylation in SH-SY5Y cells over-expressing recombinant full length LRRK2 (Homo sapiens, UniProt Q5S007)
T1 construct: A BacMam virus expressing full length recombinant LRRK2 was purchased from Invitrogen; host or cells: SH-SY5Y human neuroblastoma cells transduced with BacMam LRRK2 virus
Experiment: Recombinant cellular LRRK2 AlphaScreen assay
Assay type: cell-based
Details: human neuroblastoma SH-SY5Y cells, BacMam full length LRRK2, 60 minutes with compound, read-out: pIC50 in the recombinant cellular LRRK2 AlphaScreen assay (converted)
From the text: b. Recombinant Cellular LRRK2 AlphaScreen Assay
To determine the activity of compounds against LRRK2 kinase activity in cells, the observed LRRK2 kinase-dependent modulation of LRRK2 Ser 935 phosphorylation (Dzamko et al., 2010, Biochem. J. 430: 405-413) was utilized to develop a quantitative 384 well plate-based immunoassay of LRRK2 Ser935 phosphorylation in the human neuroblastoma cell line SH-SY5Y, engineered to over-express recombinant full length LRRK2 protein.
A BacMam virus expressing full length recombinant LRRK2 was purchased from Invitrogen and amplified by inoculation of SF-9 cells at MOI 0.3 for 4-5 days in Sf-900 III SFM medium supplemented with 3% fetal bovine serum. Infected cell cultures were then centrifuged at 2000 g for 20 minutes, viral supernatant titer determined by anti-gp64 plaque assay and stored at 4° C.
Affinity-purified anti-phospho LRRK2 Ser935 sheep polyclonal antibody (Dzamko et al., 2010, Biochem. J. 430: 405-413) was biotinylated by standard methods (PerkinElmer). Anti-LRRK2 rabbit polyclonal antibody was purchased from Novus Biologicals. AlphaScreen Protein A IgG Kit (including acceptor and donor beads) was purchased from Perkin Elmer.
SH-SY5Y cells were grown in DMEM/F12 medium with 10% dialysed fetal bovine serum and harvested by treatment with 0.5% trypsin-EDTA for 5 minutes at 37° C. followed by centrifugation at 1000 rpm for 4 minutes. The cell pellet was resuspended in Opti-MEM reduced serum media (Invitrogen) at 200,000 cells/ml and mixed with the BacMam LRRK2 virus at MOI=50. 50 μl cell solutions were then dispensed to each well of a 384-well plate and incubated at 37° C., 5% CO2 for 24 hours.
Serial dilutions of test compounds were prepared in Opti-MEM reduced serum media (Invitrogen) and 5.6 ul transferred from compound plate to cell assay plate to achieve a top final assay concentration of 10 uM. DMSO was used in certain wells as controls. Cells were incubated at 37° C., 5% CO2 for 60 minutes. The medium was then removed and cells lysed by addition of 20 ul cell lysis buffer (Cell Signaling Technology) and incubation at 4° C. for 20 minutes. 10 ul of antibody/acceptor bead mix [(1/1000 biotinylated-pS935 LRRK2 antibody, 1/1000 total-LRRK2 antibody, 1/100 Acceptor beads in AlphaScreen detection buffer (25 mM Hepes (pH 7.4), 0.5% Triton X-100, 1 mg/ml Dextran 500 and 0.1% BSA)] was then added to each well and plates incubated for 2 hours at ambient temperature in the dark. 10 μl of donor beads solution (1/33.3 donor beads in AlphaScreen detection buffer) was then added to each well. Following incubation for a further 2 hours at ambient temperature in the dark, plates were read on an EnVision™ plate reader at emission 520-620 nm with excitation 680 nm. Dose response curve data was based on sigmoidal dose-response model.

T1 sequence (Q5S007 whole entry): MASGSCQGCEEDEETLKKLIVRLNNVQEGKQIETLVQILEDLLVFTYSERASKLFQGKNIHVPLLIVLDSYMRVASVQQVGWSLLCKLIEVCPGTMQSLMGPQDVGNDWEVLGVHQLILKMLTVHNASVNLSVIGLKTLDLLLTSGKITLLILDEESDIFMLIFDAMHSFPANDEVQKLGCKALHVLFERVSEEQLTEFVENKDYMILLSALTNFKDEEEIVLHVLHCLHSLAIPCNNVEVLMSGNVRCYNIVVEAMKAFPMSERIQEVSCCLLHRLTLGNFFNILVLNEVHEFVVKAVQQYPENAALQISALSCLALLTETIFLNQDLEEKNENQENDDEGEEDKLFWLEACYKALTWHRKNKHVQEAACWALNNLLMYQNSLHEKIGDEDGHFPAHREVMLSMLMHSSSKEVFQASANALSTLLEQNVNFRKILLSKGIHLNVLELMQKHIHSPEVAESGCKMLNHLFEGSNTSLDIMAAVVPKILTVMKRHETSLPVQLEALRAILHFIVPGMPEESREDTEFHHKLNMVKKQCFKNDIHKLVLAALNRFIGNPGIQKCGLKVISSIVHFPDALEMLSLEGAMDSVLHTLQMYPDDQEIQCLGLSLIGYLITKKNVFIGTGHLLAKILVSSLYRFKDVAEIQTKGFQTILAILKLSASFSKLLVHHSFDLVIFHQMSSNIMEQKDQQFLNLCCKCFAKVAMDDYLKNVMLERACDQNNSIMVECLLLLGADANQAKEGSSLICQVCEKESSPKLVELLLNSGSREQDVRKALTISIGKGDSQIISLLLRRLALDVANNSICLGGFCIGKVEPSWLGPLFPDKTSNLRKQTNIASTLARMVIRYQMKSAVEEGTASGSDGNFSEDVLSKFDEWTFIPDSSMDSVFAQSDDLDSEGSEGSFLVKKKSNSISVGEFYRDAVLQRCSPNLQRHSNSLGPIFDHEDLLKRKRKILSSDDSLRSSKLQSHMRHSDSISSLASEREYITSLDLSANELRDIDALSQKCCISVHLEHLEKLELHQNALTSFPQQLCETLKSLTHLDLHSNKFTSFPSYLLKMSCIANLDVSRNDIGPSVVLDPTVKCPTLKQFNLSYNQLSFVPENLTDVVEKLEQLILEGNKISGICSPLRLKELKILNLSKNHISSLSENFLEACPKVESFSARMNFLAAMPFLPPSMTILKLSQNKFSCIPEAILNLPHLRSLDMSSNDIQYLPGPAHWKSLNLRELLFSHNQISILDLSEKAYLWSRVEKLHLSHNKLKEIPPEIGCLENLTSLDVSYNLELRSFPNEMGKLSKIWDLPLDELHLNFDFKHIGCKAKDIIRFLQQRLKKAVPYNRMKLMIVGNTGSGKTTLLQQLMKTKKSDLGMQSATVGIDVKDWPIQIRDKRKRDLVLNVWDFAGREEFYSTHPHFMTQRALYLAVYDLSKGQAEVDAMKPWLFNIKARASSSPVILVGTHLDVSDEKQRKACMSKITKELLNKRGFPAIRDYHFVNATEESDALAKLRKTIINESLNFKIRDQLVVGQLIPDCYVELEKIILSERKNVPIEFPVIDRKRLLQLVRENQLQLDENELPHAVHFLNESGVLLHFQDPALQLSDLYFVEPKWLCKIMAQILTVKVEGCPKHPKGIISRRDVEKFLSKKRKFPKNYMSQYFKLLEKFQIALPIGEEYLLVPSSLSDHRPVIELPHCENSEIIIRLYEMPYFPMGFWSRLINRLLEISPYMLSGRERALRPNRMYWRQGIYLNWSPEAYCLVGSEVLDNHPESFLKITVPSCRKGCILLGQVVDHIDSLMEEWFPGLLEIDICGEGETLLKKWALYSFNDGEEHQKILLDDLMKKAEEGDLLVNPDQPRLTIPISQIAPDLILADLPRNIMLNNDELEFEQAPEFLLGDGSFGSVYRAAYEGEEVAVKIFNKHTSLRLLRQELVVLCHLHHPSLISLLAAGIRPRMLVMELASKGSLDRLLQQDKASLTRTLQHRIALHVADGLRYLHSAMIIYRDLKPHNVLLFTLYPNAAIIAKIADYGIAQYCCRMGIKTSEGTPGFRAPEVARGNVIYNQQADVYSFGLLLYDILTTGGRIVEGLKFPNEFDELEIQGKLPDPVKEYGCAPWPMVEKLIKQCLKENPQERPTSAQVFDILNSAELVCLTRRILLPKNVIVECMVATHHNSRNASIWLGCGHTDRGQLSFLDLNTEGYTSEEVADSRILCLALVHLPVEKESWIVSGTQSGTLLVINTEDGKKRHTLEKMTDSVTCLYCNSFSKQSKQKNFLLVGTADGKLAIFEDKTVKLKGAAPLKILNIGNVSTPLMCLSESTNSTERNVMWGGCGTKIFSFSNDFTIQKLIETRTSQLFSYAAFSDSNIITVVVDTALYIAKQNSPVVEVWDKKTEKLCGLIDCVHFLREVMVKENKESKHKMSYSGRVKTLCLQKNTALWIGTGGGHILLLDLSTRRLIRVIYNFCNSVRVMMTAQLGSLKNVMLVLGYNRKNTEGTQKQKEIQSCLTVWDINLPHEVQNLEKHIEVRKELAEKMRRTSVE

Row | SMILES | IC50
1 | COCCN1CCC(c2cc3c(cnn3-c3cc(N4C[C@H]5C[C@@H]4CO5)nc(OC)n3)cc2C)CC1 [Example E35, (1R,4R)-5-(2-methoxy-6-(6-(1-(2-methoxyethyl)piperidin-4-yl)-5-methyl-1H-indazol-1-yl)pyrimidin-4-yl)-2-oxa-5-azabicyclo[2.2.1]heptane] | ≤ 1 µM
2 | COCCN1CCC(c2cc3c(cnn3-c3cc(N4C[C@@H]5C[C@H]4CO5)nc(OC)n3)cc2C)CC1 [Example E36, (1S,4S)-5-(2-methoxy-6-(6-(1-(2-methoxyethyl)piperidin-4-yl)-5-methyl-1H-indazol-1-yl)pyrimidin-4-yl)-2-oxa-5-azabicyclo[2.2.1]heptane] | ≤ 1 µM
3 | COc1nc(N2C[C@H]3C[C@@H]2CO3)cc(-n2ncc3cc(C)c(C4CCN(CCF)CC4)cc32)n1 [Example E37, (1R,4R)-5-(6-(6-(1-(2-fluoroethyl)piperidin-4-yl)-5-methyl-1H-indazol-1-yl)-2-methoxypyrimidin-4-yl)-2-oxa-5-azabicyclo[2.2.1]heptane] | ≤ 1 µM
4 | COc1nc(N2C[C@@H]3C[C@H]2CO3)cc(-n2ncc3cc(C)c(C4CCN(CCF)CC4)cc32)n1 [Example E38, (1S,4S)-5-(6-(6-(1-(2-fluoroethyl)piperidin-4-yl)-5-methyl-1H-indazol-1-yl)-2-methoxypyrimidin-4-yl)-2-oxa-5-azabicyclo[2.2.1]heptane] | ≤ 1 µM
5 | Cc1nc(N2C[C@H]3C[C@@H]2CO3)cc(-n2ncc3cc(C)c(C4CCN(C5COC5)CC4)cc32)n1 [Example E39, (1R,4R)-5-(2-methyl-6-(5-methyl-6-(1-(oxetan-3-yl)piperidin-4-yl)-1H-indazol-1-yl)pyrimidin-4-yl)-2-oxa-5-azabicyclo[2.2.1]heptane] | ≤ 1 µM
6 | Cc1nc(N2C[C@@H]3C[C@H]2CO3)cc(-n2ncc3cc(C)c(C4CCN(C5COC5)CC4)cc32)n1 [Example E40, (1S,4S)-5-(2-methyl-6-(5-methyl-6-(1-(oxetan-3-yl)piperidin-4-yl)-1H-indazol-1-yl)pyrimidin-4-yl)-2-oxa-5-azabicyclo[2.2.1]heptane] | ≤ 1 µM
7 | COc1nc(N2CC3CCC(C2)O3)cc(-n2ncc3cc(C)c(C4CCN(C5COC5)CC4)cc32)n1 [Example E41, 3-(2-Methoxy-6-(5-methyl-6-(1-(oxetan-3-yl)piperidin-4-yl)-1H-indazol-1-yl)pyrimidin-4-yl)-8-oxa-3-azabicyclo[3.2.1]octane] | ≤ 1 µM
8 | Cc1nc(N2CC3CCC(C2)O3)cc(-n2ncc3cc(C)c(C4CCN(C5COC5)CC4)cc32)n1 [Example E42, 3-(2-Methyl-6-(5-methyl-6-(1-(oxetan-3-yl)piperidin-4-yl)-1H-indazol-1-yl)pyrimidin-4-yl)-8-oxa-3-azabicyclo[3.2.1]octane] | ≤ 1 µM
9 | COc1nc(N2CC3CC(C2)O3)cc(-n2ncc3cc(C)c(C4CCN(C5COC5)CC4)cc32)n1 [Example E43, 3-(2-Methoxy-6-(5-methyl-6-(1-(oxetan-3-yl)piperidin-4-yl)-1H-indazol-1-yl)pyrimidin-4-yl)-6-oxa-3-azabicyclo[3.1.1]heptane] | ≤ 1 µM
10 | Cc1nc(N2CC3CC(C2)O3)cc(-n2ncc3cc(C)c(C4CCN(C5COC5)CC4)cc32)n1 [Example E44, 3-(2-Methyl-6-(5-methyl-6-(1-(oxetan-3-yl)piperidin-4-yl)-1H-indazol-1-yl)pyrimidin-4-yl)-6-oxa-3-azabicyclo[3.1.1]heptane] | ≤ 1 µM
11 | Cc1nc(N2C3CCC2COC3)cc(-n2ncc3cc(C)c(C4CCN(C5COC5)CC4)cc32)n1 [Example E45, 8-(2-methyl-6-(5-methyl-6-(1-(oxetan-3-yl)piperidin-4-yl)-1H-indazol-1-yl)pyrimidin-4-yl)-3-oxa-8-azabicyclo[3.2.1]octane] | ≤ 1 µM
12 | Cc1nc(N2C3COCC2COC3)cc(-n2ncc3cc(C)c(C4CCN(C5COC5)CC4)cc32)n1 [Example E46, 9-(2-methyl-6-(5-methyl-6-(1-(oxetan-3-yl)piperidin-4-yl)-1H-indazol-1-yl)pyrimidin-4-yl)-3,7-dioxa-9-azabicyclo[3.3.1]nonane] | ≤ 1 µM
13 | Cc1nc(N2C[C@H]3C[C@@H]2CO3)cc(-n2ncc3cc(C)c(C4CCN(CCO)CC4)cc32)n1 [Example E51, 2-(4-(1-(6-((1R,4R)-2-oxa-5-azabicyclo[2.2.1]heptan-5-yl)-2-methylpyrimidin-4-yl)-5-methyl-1H-indazol-6-yl)piperidin-1-yl)ethanol] | ≤ 1 µM
14 | Cc1nc(N2C[C@@H]3C[C@H]2CO3)cc(-n2ncc3cc(C)c(C4CCN(CCO)CC4)cc32)n1 [Example E52, 2-(4-(1-(6-((1S,4S)-2-oxa-5-azabicyclo[2.2.1]heptan-5-yl)-2-methylpyrimidin-4-yl)-5-methyl-1H-indazol-6-yl)piperidin-1-yl)ethanol] | ≤ 1 µM
15 | Cc1nc(N2C[C@H]3C[C@@H]2CO3)cc(-n2ncc3cc(C)c(C4CCN(C(=O)CO)CC4)cc32)n1 [Example E53, 1-(4-(1-(6-((1R,4R)-2-oxa-5-azabicyclo[2.2.1]heptan-5-yl)-2-methylpyrimidin-4-yl)-5-methyl-1H-indazol-6-yl)piperidin-1-yl)-2-hydroxyethanone] | ≤ 1 µM
16 | Cc1nc(N2C[C@@H]3C[C@H]2CO3)cc(-n2ncc3cc(C)c(C4CCN(C(=O)CO)CC4)cc32)n1 [Example E54, 1-(4-(1-(6-((1S,4S)-2-oxa-5-azabicyclo[2.2.1]heptan-5-yl)-2-methylpyrimidin-4-yl)-5-methyl-1H-indazol-6-yl)piperidin-1-yl)-2-hydroxyethanone] | ≤ 1 µM
17 | Cc1nc(N2C[C@H]3C[C@@H]2CO3)cc(-n2ncc3cc(C)c(C4CCN(C5COC5)CC4C)cc32)n1 (stereo partly drawn) [Example E55, (1R,4R)-5-(2-methyl-6-(5-methyl-6-(3-methyl-1-(oxetan-3-yl)piperidin-4-yl)-1H-indazol-1-yl)pyrimidin-4-yl)-2-oxa-5-azabicyclo[2.2.1]heptane] | ≤ 1 µM
18 | [2H]C1(N2CCC(c3cc4c(cnn4-c4cc(N5C[C@H]6C[C@@H]5CO6)nc(OC)n4)cc3C)CC2)COC1 [Example E56, (1R,4R)-5-(6-(6-(1-(3-deuterooxetan-3-yl)piperidin-4-yl)-5-methyl-1H-indazol-1-yl)-2-methoxypyrimidin-4-yl)-2-oxa-5-azabicyclo[2.2.1]heptane] | ≤ 0.01 µM
19 | [2H]C1(N2CCC(c3cc4c(cnn4-c4cc(N5C[C@@H]6C[C@H]5CO6)nc(OC)n4)cc3C)CC2)COC1 [Example E57, (1S,4S)-5-(6-(6-(1-(3-deuterooxetan-3-yl)piperidin-4-yl)-5-methyl-1H-indazol-1-yl)-2-methoxypyrimidin-4-yl)-2-oxa-5-azabicyclo[2.2.1]heptane] | ≤ 1 µM
20 | COc1nc(N2C[C@H]3C[C@@H]2CO3)cc(-n2ncc3cc(C)c(C4CCNCC4)cc32)n1 [Example E58, (1R,4R)-5-(2-methoxy-6-(5-methyl-6-(piperidin-4-yl)-1H-indazol-1-yl)pyrimidin-4-yl)-2-oxa-5-azabicyclo[2.2.1]heptane] | ≤ 1 µM
21 | COc1nc(N2C[C@@H]3C[C@H]2CO3)cc(-n2ncc3cc(C)c(C4CCNCC4)cc32)n1 [Example E59, (1S,4S)-5-(2-methoxy-6-(5-methyl-6-(piperidin-4-yl)-1H-indazol-1-yl)pyrimidin-4-yl)-2-oxa-5-azabicyclo[2.2.1]heptane] | ≤ 1 µM
22 | COc1nc(N2CC3CC(C2)O3)cc(-n2ncc3cc(C)c(C4CCNCC4)cc32)n1 [Example E60, 3-(2-methoxy-6-(5-methyl-6-(piperidin-4-yl)-1H-indazol-1-yl)pyrimidin-4-yl)-6-oxa-3-azabicyclo[3.1.1]heptane 2,2,2-trifluoroacetate] | ≤ 1 µM
23 | Cc1nc(N2CC3CC(C2)O3)cc(-n2ncc3cc(C)c(C4CCNCC4)cc32)n1 [Example E61, 3-(2-methyl-6-(5-methyl-6-(piperidin-4-yl)-1H-indazol-1-yl)pyrimidin-4-yl)-6-oxa-3-azabicyclo[3.1.1]heptane 2,2,2-trifluoroacetate] | ≤ 1 µM
